Assay results reported in patent US11702418B2, “SOS1 inhibitors” (priority 2019, dated 2023).
Counter-ions that a name gives are not always drawn. Like-named read-outs stand apart in the source and are kept apart here.

How the values were obtained:
[1] = biological target: recombinant human SOS1 polypeptide (amino acids 560-1049) (Homo sapiens (Human), UniProt Q07889); assay: biochemical; type: binding
[2] = tested on: pERK in MKN1 cells; assay: cells; type: cell-based; conditions: Homo sapiens
Protocol: The cells were incubated for approximately 0.5-1 hour with the compounds solubilized in DMSO at 37° C. Cells were immediately fixed by adding 50 μL of 4% formaldehyde to all wells in a fume hood and the plates were incubated for 20 minutes at room temperature. The formaldehyde was discarded from the plates and 150 μL of ice-cold methanol was added to permeabilize the cells for 10 minutes at −20° C. The methanol was discarded from each of the plates and any liquid remaining in the plate by tapping the plate against paper towels. […] The plates were incubated overnight at 4° C. on a shaker.
On Assay day 2, the primary antibody solution was removed. […] The secondary antibody solution as removed and each plate was washed with PBST 3× times. Any liquid remaining was discarded and the plate was imaged using the Licor Odyssey machine according to the manufacturer's instruction, using a set focus length at 3 mm and both 800 nm and 700 nm filters. The GAPDH normalized scan values for each well were divided by the average of vehicle wells to get the % of pERK inhibition. The IC50 values were then calculated with the Graph pad Prism software.

[3] = read-out: Ki, Inhibition of Labeled Tracer Binding to SOS1
[4] = HTRF displacement, Cy5 labelled tracer, Morrison equation for competitive binding, read-out: Ki, Inhibition of Labeled Tracer Binding to SOS1
[5] = MKN-1, pERK inhibition, In-Cell Western, MKN1 or H358 cells (Table 24 does not say which), 0.5-1 hour incubation, read-out: IC50
[6] = MKN-1, pERK inhibition, In-Cell Western, MKN1 or H358 cells (Table 24 does not say which), 0.5-1 hour incubation

recombinant human SOS1 polypeptide (amino acids 560-1049), sequence (Q07889 560-1049): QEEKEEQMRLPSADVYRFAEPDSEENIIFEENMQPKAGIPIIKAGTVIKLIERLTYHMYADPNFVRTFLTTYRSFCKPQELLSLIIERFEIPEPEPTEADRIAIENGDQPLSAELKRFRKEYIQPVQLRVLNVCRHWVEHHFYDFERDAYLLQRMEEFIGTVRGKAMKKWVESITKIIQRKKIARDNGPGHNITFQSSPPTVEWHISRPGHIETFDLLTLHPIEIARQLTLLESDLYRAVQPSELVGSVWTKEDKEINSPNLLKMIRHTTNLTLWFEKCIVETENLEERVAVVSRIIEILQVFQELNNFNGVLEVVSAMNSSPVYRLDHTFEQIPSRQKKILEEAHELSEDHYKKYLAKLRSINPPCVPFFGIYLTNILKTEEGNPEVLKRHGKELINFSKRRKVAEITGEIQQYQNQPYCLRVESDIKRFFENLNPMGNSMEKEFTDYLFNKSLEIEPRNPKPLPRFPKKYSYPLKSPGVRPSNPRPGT

SMILES	Ki [1, 4]	IC50 [2, 5]	other results
Cc1c(C#N)cccc1[C@@H](C)Nc1nnc(C)c2ccc(N3CC4(CCN(C)C4)C3)cc12 [Example 10-73, (R)-2-methyl-3-(1-((4-methyl-7-(6-methyl-2,6-diazaspiro[3.4]octan-2-yl)phthalazin-1-yl)amino)ethyl)benzonitrile formate salt]	–	–	Ki [1, 3]: 0.63 nM; IC50 ([2]; MKN-1): 49 nM
Cc1c([C@@H](C)Nc2nnc(C)c3ccc(N4CCC5(CCNC5=O)CC4)cc23)cccc1C(F)(F)F [Example 10-38, (R)-8-(1-methyl-4-((1-(2-methyl-3-(trifluoromethyl)phenyl)ethyl)amino)phthalazin-6-yl)-2,8-diazaspiro[4.5]decan-1-one]	0.71 nM	29 nM	–
Cc1c(C#N)cccc1[C@@H](C)Nc1nnc(C)c2cnc(N3CCN(C)CC3)cc12 [Example 12-44]	1.16 nM	38 nM	–
Cc1nnc(N[C@H](C)c2cccc(C(F)(F)F)c2F)c2cc(N3CCOCC3)ccc12 [Example 10-77, (R)-N-(1-(2-fluoro-3-(trifluoromethyl)phenyl)ethyl)-4-methyl-7-morpholinophthalazin-1-amine]	0.75 nM	102 nM	–
Cc1c([C@@H](C)Nc2nnc(C)c3ccc(N4CCOCC4)cc23)cc(N)cc1C(F)(F)F [Example 15-2, (R)—N-(1-(5-amino-2-methyl-3-(trifluoromethyl)phenyl)ethyl)-4-methyl-7-morpholinophthalazin-1-amine]	–	–	Ki [1]: 0.42 nM; IC50 [2, 6]: 8 nM
Cc1c([C@@H](C)Nc2nnc(C)c3cnc(N4CC5(CCN(C)C5=O)C4)cc23)cccc1C(F)(F)F [Example 12-16]	0.87 nM	11 nM	–
Cc1c([C@@H](C)Nc2nnc(C)c3ccc(OC[C@H]4CCCN4C)cc23)cccc1C(F)(F)F [Example 10-25, 4-methyl-N-((R)-1-(2-methyl-3-(trifluoromethyl)phenyl)ethyl)-7-(((R)-1-methylpyrrolidin-2-yl)methoxy)phthalazin-1-amine hydrochloride salt]	–	–	Ki [1, 3]: 1.47 nM; IC50 ([2]; MKN-1): 103 nM
Cc1c([C@@H](C)Nc2nncc3ccc(N4CCN(C)C(CF)C4)cc23)cccc1C(F)(F)F (stereo partly drawn) [Example 1-43, 7-(3-(fluoromethyl)-4-methylpiperazin-1-yl)-N-((R)-1-(2-methyl-3-(trifluoromethyl)phenyl)ethyl)phthalazin-1-amine]	1.36 nM	216 nM	–
Cc1c([C@@H](C)Nc2nnc(C)c3cnc(N4CC5(COC5)C4)cc23)cccc1C(F)(F)F [Example 12-3]	0.74 nM	30 nM	–
Cc1nnc(N[C@H](C)c2cc(N)cc(C(F)(F)F)n2)c2cc(N3CC4(CCN(C)C4=O)C3)ncc12 [Example 16-7, (R)-2-(1-((1-(4-amino-6-(trifluoromethyl)pyridin-2-yl)ethyl)amino)-4-methylpyrido[3,4-d]pyridazin-7-yl)-6-methyl-2,6-diazaspiro[3.4]octan-5-one]	78.8 nM	2900 nM	–
Cc1nnc(N[C@H](C)c2cccc(C(F)F)c2F)c2cc(N3CC(C)(O)C3)ncc12 [Example 12-101]	1.45 nM	22 nM	–
Cc1c([C@@H](C)Nc2nnc(C)c3cc(F)c(N4CCNCC4)cc23)cccc1C(F)(F)F [Example 18-1, (R)-6-fluoro-4-methyl-N-(1-(2-methyl-3-(trifluoromethyl)phenyl)ethyl)-7-(piperazin-1-yl)phthalazin-1-amine]	–	–	Ki [1, 3]: 0.98 nM; IC50 [2, 6]: 128 nM
Cc1c([C@@H](C)Nc2nnc(C)c3ccc(N4C[C@@H]5CC[C@H]4CN5C)cc23)cccc1C(F)(F)F [Example 10-31, 4-methyl-N-((R)-1-(2-methyl-3-(trifluoromethyl)phenyl)ethyl)-7-((1S,4S)-5-methyl-2,5-diazabicyclo[2.2.2]octan-2-yl)phthalazin-1-amine]	0.35 nM	3580 nM	–
COc1c(C#N)cccc1[C@@H](C)Nc1nnc(C)c2cnc(N3CCN4CCOCC4C3)cc12 (stereo in doubt) [Example 17-2, 3-((R)-1-((7-((R)-hexahydropyrazino[2,1-c][1,4]oxazin-8(1H)-yl)-4-methylpyrido[3,4-d]pyridazin-1-yl)amino)ethyl)-2-methoxybenzonitrile]	12.5 nM	50 nM	–
Cc1c(C#N)cccc1[C@@H](C)Nc1nnc(CN(C)C)c2cnc(N3C[C@H]4C[C@@H]3CO4)cc12 [Example 14-4, 3-((R)-1-((7-((1R,4R)-2-oxa-5-azabicyclo[2.2.1]heptan-5-yl)-4-((dimethylamino)methyl)pyrido[3,4-d]pyridazin-1-yl)amino)ethyl)-2-methylbenzonitrile]	8.55 nM	89 nM	–
Cc1nnc(N[C@H](C)c2cc(N)cc(C(F)(F)F)n2)c2cc(N3C[C@H]4C[C@@H]3CO4)ccc12 [Example 16-8, N-((R)-1-(4-amino-6-(trifluoromethyl)pyridin-2-yl)ethyl)-7-((1R, 4R)-2-oxa-5-azabicyclo[2.2.1]heptan-5-yl)-4-methylphthalazin-1-amine]	21.2 nM	93 nM	–

SMILES	Ki [1, 4]	IC50 [2, 5]	other results
Cc1cccc(C(C)Nc2nnc(C)c3ccc(N4CCOCC4)cc23)c1Cl (stereo not shown) [Example 10-60, N-(1-(2-chloro-3-methylphenyl)ethyl)-4-methyl-7-morpholinophthalazin-1-amine]	2 nM	961 nM	–
COc1c(C#N)cccc1[C@@H](C)Nc1nnc(C)c2cnc(N3CC(C)(O)C3)cc12 [Example 17-3, (R)-3-(1-((7-(3-hydroxy-3-methylazetidin-1-yl)-4-methylpyrido[3,4-d]pyridazin-1-yl)amino)ethyl)-2-methoxybenzonitrile]	12.8 nM	188 nM	–
Cc1cn2c(n1)C(C)N(c1ccc3cnnc(N[C@H](C)c4cccc(C(F)(F)F)c4C)c3c1)CC2 (stereo partly drawn) [Example 1-44, 7-(2,8-dimethyl-5,6-dihydroimidazo[1,2-a]pyrazin-7(8H)-yl)-N-((R)-1-(2-methyl-3-(trifluoromethyl)phenyl)ethyl)phthalazin-1-amine]	0.42 nM	235 nM	–
Cc1c([C@@H](C)Nc2nnc(C)c3ccc(O[C@H]4CCOC4)cc23)cccc1C(F)(F)F [Example 13-1, 4-methyl-N—((R)-1-(2-methyl-3-(trifluoromethyl)phenyl)ethyl)-7-(((S)-tetrahydrofuran-3-yl)oxy)phthalazin-1-amine]	2.77 nM	149 nM	–
Cc1nnc(N[C@H](C)c2cccc(C(F)(F)F)c2F)c2cc(N3CC(C)(N(C)C)C3)ccc12 [Example 10-78, (R)-7-(3-(dimethylamino)-3-methylazetidin-1-yl)-N-(1-(2-fluoro-3-(trifluoromethyl)phenyl)ethyl)-4-methylphthalazin-1-amine]	1.16 nM	114 nM	–
Cc1ncccc1[C@@H](C)Nc1nnc(C)c2ccc(N3CCOCC3)cc12 [Example 10-72, (R)-4-methyl-N-(1-(2-methylpyridin-3-yl)ethyl)-7-morpholinophthalazin-1-amine]	46.1 nM	466 nM	–
Cc1c([C@@H](C)Nc2nncc3ccc(OC4CCN5CCCC5C4)cc23)cccc1C(F)(F)F (stereo partly drawn) [Example 2-12, N-((R)-1-(2-methyl-3-(trifluoromethyl)phenyl)ethyl)-7-((octahydroindolizin-7-yl)oxy)phthalazin-1-amine]	5.75 nM	304 nM	–
CNCc1ccccc1-c1ccc([C@@H](C)Nc2nnc(C(F)(F)F)c3ccc(N4CCOCC4)cc23)s1 [Example 10-2, (R)—N-(1-(5-(2-((methylamino)methyl)phenyl)thiophen-2-yl)ethyl)-7-morpholino-4-(trifluoromethyl)phthalazin-1-amine]	14.9 nM	1370 nM	–
Cc1nnc(N[C@H](C)c2cc(F)cc(C(F)(F)F)c2)c2cc(N3CCOCC3)ncc12 [Example 6-14, (R)-N-(1-(3-fluoro-5-(trifluoromethyl)phenyl)ethyl)-4-methyl-7-morpholinopyrido[3,4-d]pyridazin-1-amine]	5.51 nM	320 nM	–
Cc1nnc(N[C@H](C)c2cccc3ccccc23)c2cc(N3CCNCC3)ccc12 [Example 10-43, (R)-4-methyl-N-(1-(naphthalen-1-yl)ethyl)-7-(piperazin-1-yl)phthalazin-1-amine formate salt]	–	–	Ki [1, 3]: 1.13 nM; IC50 ([2]; MKN-1): 138 nM
Cc1c(C#N)cccc1[C@@H](C)Nc1nnc(C)c2cnc(N3CCC(F)(F)CC3)cc12 [Example 12-34]	4.24 nM	51 nM	–
Cc1nnc(N[C@H](C)c2cccc(C(F)F)c2F)c2cc(N3CC(C)(N(C)C)C3)ncc12 [Example 12-115]	1.66 nM	19 nM	–
Cc1c([C@@H](C)Nc2nnc(C)c3ccc(OC[C@@H]4CCCN4)cc23)cccc1C(F)(F)F [Example 7-6, 4-methyl-N-((R)-1-(2-methyl-3-(trifluoromethyl)phenyl)ethyl)-7-(((S)-pyrrolidin-2-yl)methoxy)phthalazin-1-amine]	1.41 nM	110 nM	–
Cc1c(C#N)cccc1[C@@H](C)Nc1nnc(C)c2ccc(N3CC4(COCCN4C)C3)cc12 [Example 10-79, (R)-2-methyl-3-(1-((4-methyl-7-(5-methyl-8-oxa-2,5-diazaspiro[3.5]nonan-2-yl)phthalazin-1-yl)amino)ethyl)benzonitrile Formate salt]	–	–	Ki [1, 3]: 4.15 nM; IC50 ([2]; MKN-1): 16 nM
Cc1c([C@@H](C)Nc2nnc(C)c3ccc(N4CCC(N5CCC(F)(F)C5)CC4)cc23)cccc1C(F)(F)F [Example 10-49, (R)-7-(4-(3,3-difluoropyrrolidin-1-yl)piperidin-1-yl)-4-methyl-N-(1-(2-methyl-3-(trifluoromethyl)phenyl)ethyl)phthalazin-1-amine Formate salt]	–	–	Ki [1, 3]: 0.56 nM; IC50 ([2]; MKN-1): 107 nM
Cc1c(C#N)cccc1[C@@H](C)Nc1nnc(C)c2ccc(N3CCC(F)(F)CC3)cc12 [Example 10-67, (R)-3-(1-((7-(4,4-difluoropiperidin-1-yl)-4-methylphthalazin-1-yl)amino)ethyl)-2-methylbenzonitrile]	2.57 nM	44 nM	–
